Results on 22 compounds are retold here after patent publication US12227520B2 (priority 2019, dated 2025).

Series [1] concerns HIV-1 (IIIB). Briefly: Antiviral assay in MT-4 cells (HIV MT-4 antiviral assay). The format is cell-based. The following applies: Human immunodeficiency virus 1, IIIB, MT4, 120 h, HIV-1 (IIIB) in MT-4 cells, 5 days incubation; read-out: EC50. Here is the method: Compounds were tested in a high-throughput 384-well assay format for their ability to inhibit the replication of HIV-1 (IIIB) in MT-4 cells. Compounds were serially diluted (1:3) in DMSO on 384-well polypropylene plates and further diluted 200-fold into complete RPMI media (10% FBS, 1% P/S) using the Biotek Micro Flow and Labcyte ECHO acoustic dispenser. Each plate contained up to 8 test compounds, with negative (No Drug Control) and 5 μM AZT positive controls. MT-4 cells were pre-infected with 10 μL of either RPMI (mock-infected) or a fresh 1:250 dilution of HIV-1 IIIB concentrated virus stock. Infected and uninfected MT-4 cells were further diluted in complete RPMI media and added to each plate using a Micro Flow dispenser. After 5 days incubation in a humidified and temperature controlled incubator (37° C.), Cell Titer Glo (Promega) was added to the assay plates and chemiluminescence read using an Envision plate-reader.

A short description of series [2]: Cytotoxicity assay in MT-4 cells. Particulars: human, uninfected MT-4 cells, 5 days incubation; read-out: CC50. The format is cell-based, human. Here is the method: Each plate contained up to 8 test compounds, with negative (No Drug Control) and 5 μM AZT positive controls. MT-4 cells were pre-infected with 10 μL of either RPMI (mock-infected) or a fresh 1:250 dilution of HIV-1 IIIB concentrated virus stock. Infected and uninfected MT-4 cells were further diluted in complete RPMI media and added to each plate using a Micro Flow dispenser. After 5 days incubation in a humidified and temperature controlled incubator (37° C.), Cell Titer Glo (Promega) was added to the assay plates and chemiluminescence read using an Envision plate-reader. […] Assays were performed as above except uninfected MT-4 cells were added to each well containing test compound. In addition, 10 μM puromycin was added to the last column of each assay plate to assess a base level of cytotoxicity.

What is called EC50 is the concentration giving half of the maximal effect. What is called CC50 is the concentration at which the toxic effect on the cells reaches its halfway point.

`O=C(NCc1ccc(F)cc1F)c1cn2c(c(O)c1=O)C(=O)N1CCOC[C@H]2C1` [Example 29, (7R)—N-(2,4-difluorobenzyl)-12-hydroxy-1,11-dioxo-1,3,4,6,7,11-hexahydro-2,7-methanopyrido[1,2-d][1,4,7]oxadiazonine-10-carboxamide]: the concentration for a half-maximal effect (EC50) in series [1] came out at 0.007 µM. The CC50 at 5 days in series [2] is above 50 µM.

In the case of `O=C(NCc1ccc(F)cc1F)c1cn2c(c(O)c1=O)C(=O)N1CCNCC2C1` (centres unmarked) [Example 30, N-(2,4-difluorobenzyl)-12-hydroxy-1,11-dioxo-1,4,5,6,7,11-hexahydro-3H-2,7-methanopyrido[1,2-a][1,4,7]triazonine-10-carboxamide], the EC50 in series [1] was 0.0069 µM. Besides, the CC50 at 5 days in series [2] was 1.66 µM.

In the case of `CC(=O)N1CCN2CC(C1)n1cc(C(=O)NCc3ccc(F)cc3F)c(=O)c(O)c1C2=O` (centres unmarked) [Example 31, 5-acetyl-N-(2,4-difluorobenzyl)-12-hydroxy-1,11-dioxo-1,4,5,6,7,11-hexahydro-3H-2,7-methanopyrido[1,2-a][1,4,7]triazonine-10-carboxamide], the EC50 in series [1] is above 0.1 µM. Further, in series [2], the CC50 at 5 days is above 50 µM.

For `CS(=O)(=O)N1CCN2CC(C1)n1cc(C(=O)NCc3ccc(F)cc3F)c(=O)c(O)c1C2=O` (centres unmarked) [Example 32, N-(2,4-difluorobenzyl)-12-hydroxy-5-(methylsulfonyl)-1,11-dioxo-1,4,5,6,7,11-hexahydro-3H-2,7-methanopyrido[1,2-a][1,4,7]triazonine-10-carboxamide], in series [1], the concentration for a half-maximal effect (EC50) was above 0.1 µM. Also, the 50% cytotoxic concentration (CC50) at 5 days in series [2] was above 50 µM.

Regarding `CN1CCN2CC(C1)n1cc(C(=O)NCc3ccc(F)cc3F)c(=O)c(O)c1C2=O` (centres unmarked) [Example 33, N-(2,4-difluorobenzyl)-12-hydroxy-5-methyl-1,11-dioxo-1,4,5,6,7,11-hexahydro-3H-2,7-methanopyrido[1,2-a][1,4,7]triazonine-10-carboxamide], the EC50 in series [1] was determined as 0.007 µM. Besides, in series [2], the CC50 at 5 days is above 50 µM.

Turning to `O=C(NCc1c(F)cc(F)cc1F)c1cn2c(c(O)c1=O)C(=O)N1C[C@H]2CCc2c(Cl)cccc21` [Example 45-2, (12R)-1-chloro-7-hydroxy-6,8-dioxo-N-(2,4,6-trifluorobenzyl)-6,8,13,14-tetrahydro-12H-5,12-methanobenzo[e]pyrido[1,2-a][1,4]diazonine-9-carboxamide], the EC50 in series [1] is 0.0303 µM. The CC50 at 5 days in series [2] was determined as 8.89 µM.

With `O=C(NCc1c(F)cc(F)cc1F)c1cn2c(c(O)c1=O)C(=O)N1C[C@@H]2CCc2cccc(F)c21` [Example 46-1, (12S)-4-fluoro-7-hydroxy-6,8-dioxo-N-(2,4,6-trifluorobenzyl)-6,8,13,14-tetrahydro-12H-5,12-methanobenzo[e]pyrido[1,2-a][1,4]diazonine-9-carboxamide], the EC50 in series [1] was determined as 0.0902 µM. Moreover, the CC50 at 5 days in series [2] amounted to 9.24 µM.

For `O=C(NCc1c(F)cc(F)cc1F)c1cn2c(c(O)c1=O)C(=O)N1C[C@@H]2CCc2cc(Cl)ccc21` [Example 48-1, (12S)-2-chloro-7-hydroxy-6,8-dioxo-N-(2,4,6-trifluorobenzyl)-6,8,13,14-tetrahydro-12H-5,12-methanobenzo[e]pyrido[1,2-a][1,4]diazonine-9-carboxamide], the EC50 in series [1] was above 0.034 µM. In addition, the CC50 at 5 days in series [2] was above 13.8 µM.

As to `O=C(NCc1ccc(F)cc1F)c1cn2c(c(O)c1=O)C(=O)N1C[C@@H]2CCc2cc(Cl)ccc21` [Example 49-1, (12S)-2-chloro-N-(2,4-difluorobenzyl)-7-hydroxy-6,8-dioxo-6,8,13,14-tetrahydro-12H-5,12-methanobenzo[e]pyrido[1,2-a][1,4]diazonine-9-carboxamide], in series [1], the EC50 worked out at 0.0365 µM. In addition, the CC50 at 5 days in series [2] is above 15.7 µM.

As for `COc1cccc(CNC(=O)c2cn3c(c(O)c2=O)C(=O)N2CCCC[C@H]3C2)c1F` [Example 54], the EC50 in series [1] turned out to be 0.036 µM. In series [2], the CC50 at 5 days is 1.46 µM.

Consider `O=C(NCc1ccc(F)cc1F)c1cn2c(c(O)c1=O)C(=O)N1CCCC(O)(C(F)F)[C@H]2C1` (stereo partly drawn) [Example 76, (7R)—N-(2,4-difluorobenzyl)-6-(difluoromethyl)-6,12-dihydroxy-1,11-dioxo-1,4,5,6,7,11-hexahydro-3H-2,7-methanopyrido[1,2-a][1,4]diazonine-10-carboxamide], for which the EC50 in series [1] was 0.00799 µM. The CC50 at 5 days in series [2] is 23.7 µM.

In the case of `Cn1ncc2c1CC[C@H]1CN2C(=O)c2c(O)c(=O)c(C(=O)NCc3c(F)cc(F)cc3F)cn21` [Example 85-2, (11S)-6-hydroxy-1-methyl-5,7-dioxo-N-(2,4,6-trifluorobenzyl)-1,5,7,11,12,13-hexahydro-4,11-methanopyrazolo[4,3-e]pyrido[1,2-a][1,4]diazonine-8-carboxamide], in series [1], the EC50 is 0.00585 µM. The CC50 at 5 days in series [2] is above 49.3 µM.

Take `O=C(NCc1c(F)cc(F)cc1F)c1cn2c(c(O)c1=O)C(=O)N1C[C@H]2CCc2ccc(F)cc21` [Example 86-1, (12R)-3-fluoro-7-hydroxy-6,8-dioxo-N-(2,4,6-trifluorobenzyl)-6,8,13,14-tetrahydro-12H-5,12-methanobenzo[e]pyrido[1,2-a][1,4]diazonine-9-carboxamide]: in series [1], the EC50 worked out at 0.027 µM. Further, in series [2], the CC50 at 5 days was above 30.3 µM.

For the compound `Cn1cc2c(n1)C[C@H]1CN(C2)C(=O)c2c(O)c(=O)c(C(=O)NCc3c(F)cc(F)cc3F)cn21` [Example 87-1, (12S)-7-hydroxy-2-methyl-6,8-dioxo-N-(2,4,6-trifluorobenzyl)-2,4,6,8,12,13-hexahydro-5,12-methanopyrazolo[4,3-f]pyrido[1,2-a][1,4]diazonine-9-carboxamide], the EC50 in series [1] was 0.00609 µM. Also, in series [2], the CC50 at 5 days is above 50 µM.

As for `Cn1ncc2c1C[C@H]1CN(C2)C(=O)c2c(O)c(=O)c(C(=O)NCc3c(F)cc(F)cc3F)cn21` [Example 87-2, (12S)-7-hydroxy-1-methyl-6,8-dioxo-N-(2,4,6-trifluorobenzyl)-1,4,6,8,12,13-hexahydro-5,12-methanopyrazolo[4,3-f]pyrido[1,2-a][1,4]diazonine-9-carboxamide], the EC50 in series [1] turned out to be 0.00174 µM. Also, in series [2], the CC50 at 5 days is above 50 µM.

Regarding `O=C(NCc1ccc(F)c(Cl)c1F)c1cn2c(c(O)c1=O)C(=O)N1C[C@H]2CCc2ccc(F)cc21` [Example 90-1, (12R)—N-(3-chloro-2,4-difluorobenzyl)-3-fluoro-7-hydroxy-6,8-dioxo-6,8,13,14-tetrahydro-12H-5,12-methanobenzo[e]pyrido[1,2-a][1,4]diazonine-9-carboxamide], the EC50 in series [1] amounted to 0.0241 µM. The CC50 at 5 days in series [2] was above 32.6 µM.

`CO[C@H]1CC[C@H]2CN(C1)C(=O)c1c(O)c(=O)c(C(=O)NCc3c(F)cc(F)cc3F)cn12` [Example 91, (4S,7S)-12-hydroxy-4-methoxy-1,11-dioxo-N-(2,4,6-trifluorobenzyl)-1,4,5,6,7,11-hexahydro-3H-2,7-methanopyrido[1,2-a][1,4]diazonine-10-carboxamide]: in series [1], the EC50 is 0.0232 µM. The half-maximal cytotoxic concentration (CC50) at 5 days in series [2] was above 50 µM.

For `O=C(NCc1ccc(F)cc1F)c1cn2c(c(O)c1=O)C(=O)N1C[C@@H]2COc2cc(F)c(F)cc21` [Example 92-1, (6R)—N-(2,4-difluorobenzyl)-10,11-difluoro-1-hydroxy-2,14-dioxo-2,6,7,14-tetrahydro-6,13-methanobenzo[b]pyrido[2,1-f][1,4,7]oxadiazonine-3-carboxamide], in series [1], the EC50 turned out to be 0.535 µM. Besides, the CC50 at 5 days in series [2] is above 50 µM.

For the compound `O=C(NCc1ccc(F)c(Cl)c1F)c1cn2c(c(O)c1=O)C(=O)N1C[C@@H]2CCCc2ccccc21` [Example 97-1, (6S)—N-(3-chloro-2,4-difluorobenzyl)-1-hydroxy-2,15-dioxo-2,6,7,8,9,15-hexahydro-6,14-methanobenzo[e]pyrido[1,2-a][1,4]diazecine-3-carboxamide], the 50% effective concentration (EC50) in series [1] was 0.00285 µM. For the same compound, the half-maximal cytotoxic concentration (CC50) at 5 days in series [2] is 6.06 µM.

On to `O=C(NCc1ccc(F)c(Cl)c1F)c1cn2c(c(O)c1=O)C(=O)N1C[C@H]2CCCc2ccccc21` [Example 97-2, (6R)—N-(3-chloro-2,4-difluorobenzyl)-1-hydroxy-2,15-dioxo-2,6,7,8,9,15-hexahydro-6,14-methanobenzo[e]pyrido[1,2-a][1,4]diazecine-3-carboxamide], for which, in series [1], the half-maximal effective concentration (EC50) was 0.00605 µM. Further, the CC50 at 5 days in series [2] is 16.3 µM.

Turning to `COC1CCCN2C[C@@H]1n1cc(C(=O)NCc3c(F)cc(F)cc3F)c(=O)c(O)c1C2=O` (stereo partly drawn) [Example 99-1, (7S)-12-hydroxy-6-methoxy-1,11-dioxo-N-(2,4,6-trifluorobenzyl)-1,4,5,6,7,11-hexahydro-3H-2,7-methanopyrido[1,2-a][1,4]diazonine-10-carboxamide], the 50% effective concentration (EC50) in series [1] was 0.00153 µM. Moreover, the 50% cytotoxic concentration (CC50) at 5 days in series [2] is above 22.2 µM.

Regarding `COC1CCCN2C[C@H]1n1cc(C(=O)NCc3c(F)cc(F)cc3F)c(=O)c(O)c1C2=O` (stereo partly drawn) [Example 99-2, (7R)-12-hydroxy-6-methoxy-1,11-dioxo-N-(2,4,6-trifluorobenzyl)-1,4,5,6,7,11-hexahydro-3H-2,7-methanopyrido[1,2-a][1,4]diazonine-10-carboxamide], in series [1], the EC50 is 0.00302 µM. Also, the CC50 at 5 days in series [2] was above 23.4 µM.
